# Measurements from patent publication US20260262643A1, “HERBICIDAL BENZOXAZINES” (FMC CORPORATION, priority 2022, published 2026).
# Experiments:
# [1] = tested on: ryegrass, Italian; test: Test C preemergence; format: in vivo, Lolium multiflorum; conditions: preemergence, 0 to 100 scale (0 no effect, 100 complete control)
# How it was run: (§1)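 Visual injury score, 0–100 (100 = complete control), taken 10 days after treatment relative to untreated controls. Pre: directed spray onto soil over sown seeds. Post: foliar spray at one- to two-leaf stage, 2–10 cm. Solvent/surfactant formulation; loam–sand soil; greenhouse.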
# [2] = tested on: ducksalad; test: Test D flooded paddy test; format: in vivo, Heteranthera limosa; conditions: 250 g ai/ha, applied to paddy water, visual rating after 13 to 14 days, scale 0 to 100 (0 no effect, 100 complete control)
# How it was run: (§2)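 Plants at the 2-leaf stage were grown in pots flooded to 3 cm, and compound was applied directly into the paddy water, with depth kept throughout. After 13–14 days in a greenhouse, injury was rated visually against untreated controls on a 0–100 scale (100 = complete control); a dash means not tested.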
# [3] = tested on: corn; test: Test C preemergence; format: in vivo, Zea mays; conditions: preemergence, 0 to 100 scale (0 no effect, 100 complete control)
# How it was run: as §1
# [4] = tested on: ragweed; test: Test C preemergence; format: in vivo, Ambrosia artemisiifolia; conditions: preemergence, 0 to 100 scale (0 no effect, 100 complete control)
# How it was run: as §1
# [5] = tested on: green foxtail; test: Test C preemergence; format: in vivo, Setaria viridis; conditions: preemergence, 0 to 100 scale (0 no effect, 100 complete control)
# How it was run: as §1
# [6] = tested on: ragweed; test: Test C postemergence; format: in vivo, Ambrosia artemisiifolia; conditions: 10 days, 0 to 100 scale (0 no effect, 100 complete control)
# How it was run: as §1
# [7] = tested on: green foxtail; test: Test C postemergence; format: in vivo, Setaria viridis; conditions: 10 days, 0 to 100 scale (0 no effect, 100 complete control)
# How it was run: as §1
# [8] = tested on: wheat; test: Test C postemergence; format: in vivo, Triticum aestivum; conditions: 10 days, 0 to 100 scale (0 no effect, 100 complete control)
# How it was run: as §1
# [9] = tested on: horseweed; test: Test C postemergence; format: in vivo, Erigeron canadensis; conditions: 10 days, 0 to 100 scale (0 no effect, 100 complete control)
# How it was run: as §1
# [10] = tested on: kochia; test: Test C postemergence; format: in vivo, Bassia scoparia; conditions: 10 days, 0 to 100 scale (0 no effect, 100 complete control)
# How it was run: as §1
# [11] = tested on: blackgrass; test: Test C preemergence; format: in vivo, Alopecurus myosuroides; conditions: preemergence, 0 to 100 scale (0 no effect, 100 complete control)
# How it was run: as §1
# [12] = tested on: oat, wild; test: Test C postemergence; format: in vivo, Avena fatua; conditions: 10 days, 0 to 100 scale (0 no effect, 100 complete control)
# How it was run: as §1
# [13] = tested on: rice; test: Test D flooded paddy test; format: in vivo, Oryza sativa; conditions: 250 g ai/ha, applied to paddy water, visual rating after 13 to 14 days, scale 0 to 100 (0 no effect, 100 complete control)
# How it was run: as §2
# [14] = tested on: corn; test: Test C postemergence; format: in vivo, Zea mays; conditions: 10 days, 0 to 100 scale (0 no effect, 100 complete control)
# How it was run: as §1
# [15] = tested on: soybean; test: Test C preemergence; format: in vivo, Glycine max; conditions: preemergence, 0 to 100 scale (0 no effect, 100 complete control)
# How it was run: as §1
# [16] = tested on: wheat; test: Test C preemergence; format: in vivo, Triticum aestivum; conditions: preemergence, 0 to 100 scale (0 no effect, 100 complete control)
# How it was run: as §1
# [17] = tested on: sedge, umbrella; test: Test D flooded paddy test; format: in vivo, Cyperus difformis; conditions: 250 g ai/ha, applied to paddy water, visual rating after 13 to 14 days, scale 0 to 100 (0 no effect, 100 complete control)
# How it was run: as §2
# [18] = tested on: barnyardgrass; test: Test C postemergence; format: in vivo, Echinochloa crusgalli; conditions: 10 days, 0 to 100 scale (0 no effect, 100 complete control)
# How it was run: as §1
# [19] = tested on: pigweed, palmer; test: Test C preemergence; format: in vivo, Amaranthus palmeri; conditions: preemergence, 0 to 100 scale (0 no effect, 100 complete control)
# How it was run: as §1
# [20] = tested on: galium; test: Test C postemergence; format: in vivo, Galium aparine; conditions: 10 days, 0 to 100 scale (0 no effect, 100 complete control)
# How it was run: as §1
# [21] = tested on: kochia; test: Test C preemergence; format: in vivo, Bassia scoparia; conditions: preemergence, 0 to 100 scale (0 no effect, 100 complete control)
# How it was run: as §1
# [22] = tested on: barnyardgrass; test: Test C preemergence; format: in vivo, Echinochloa crusgalli; conditions: preemergence, 0 to 100 scale (0 no effect, 100 complete control)
# How it was run: as §1
# [23] = tested on: oat, wild; test: Test C preemergence; format: in vivo, Avena fatua; conditions: preemergence, 0 to 100 scale (0 no effect, 100 complete control)
# How it was run: as §1
# [24] = tested on: pigweed, palmer; test: Test C postemergence; format: in vivo, Amaranthus palmeri; conditions: 10 days, 0 to 100 scale (0 no effect, 100 complete control)
# How it was run: as §1
# [25] = tested on: soybean; test: Test C postemergence; format: in vivo, Glycine max; conditions: 10 days, 0 to 100 scale (0 no effect, 100 complete control)
# How it was run: as §1
# [26] = tested on: barnyardgrass; test: Test D flooded paddy test; format: in vivo, Echinochloa crus-galli; conditions: 250 g ai/ha, applied to paddy water, visual rating after 13 to 14 days, scale 0 to 100 (0 no effect, 100 complete control)
# How it was run: as §2
# [27] = tested on: blackgrass; test: Test C postemergence; format: in vivo, Alopecurus myosuroides; conditions: 10 days, 0 to 100 scale (0 no effect, 100 complete control)
# How it was run: as §1
# [28] = tested on: ryegrass, Italian; test: Test C postemergence; format: in vivo, Lolium multiflorum; conditions: 10 days, 0 to 100 scale (0 no effect, 100 complete control)
# How it was run: as §1
structure (smiles),measurement,setting,value
COC(=O)c1ncn(-c2ccc(C)c(C(=O)N3C[C@H](C)Oc4c(Cl)cccc43)c2)n1 [Compound 315],"Ryegrass, Italian plant response rating",[1]; 500 g ai/ha,90
same,"Ryegrass, Italian plant response rating","[1]; Test C, 125 g ai/ha",40
same,"Plant response rating, Ducksalad (Flood)",[2],85
same,Corn plant response rating,[3]; 500 g ai/ha,0
same,Corn plant response rating,"[3]; Test C, 125 g ai/ha",0
same,Ragweed plant response rating,[4]; 500 g ai/ha,30
same,Ragweed plant response rating,"[4]; Test C, 125 g ai/ha",0
same,"Foxtail, Green plant response rating",[5]; 500 g ai/ha,90
same,"Foxtail, Green plant response rating","[5]; Test C, 125 g ai/ha",30
same,"Plant response rating, Ragweed","[6]; 500 g ai/ha, postemergence",70
same,"Plant response rating, Ragweed","[6]; Postemergence, 125 g ai/ha",70
same,"Plant response rating, Foxtail, Green","[7]; 500 g ai/ha, postemergence",90
same,"Plant response rating, Foxtail, Green","[7]; Postemergence, 125 g ai/ha",80
same,"Plant response rating, Wheat","[8]; 500 g ai/ha, postemergence",90
same,"Plant response rating, Wheat","[8]; Postemergence, 125 g ai/ha",80
same,"Plant response rating, Horseweed","[9]; 500 g ai/ha, postemergence",30
same,"Plant response rating, Horseweed","[9]; Postemergence, 125 g ai/ha",0
same,"Plant response rating, Kochia","[10]; 500 g ai/ha, postemergence",50
same,"Plant response rating, Kochia","[10]; Postemergence, 125 g ai/ha",40
same,Blackgrass plant response rating,[11]; 500 g ai/ha,50
same,Blackgrass plant response rating,"[11]; Test C, 125 g ai/ha",0
same,"Plant response rating, Oat, Wild","[12]; 500 g ai/ha, postemergence",90
same,"Plant response rating, Oat, Wild","[12]; Postemergence, 125 g ai/ha",50
same,"Plant response rating, Rice (Flood)",[13],10
same,"Plant response rating, Corn","[14]; 500 g ai/ha, postemergence",40
same,"Plant response rating, Corn","[14]; Postemergence, 125 g ai/ha",30
same,Soybean plant response rating,[15]; 500 g ai/ha,0
same,Soybean plant response rating,"[15]; Test C, 125 g ai/ha",0
same,Wheat plant response rating,[16]; 500 g ai/ha,30
same,Wheat plant response rating,"[16]; Test C, 125 g ai/ha",0
same,"Plant response rating, Sedge, Umbrella (Flood)",[17],60
same,"Plant response rating, Barnyardgrass","[18]; 500 g ai/ha, postemergence",80
same,"Plant response rating, Barnyardgrass","[18]; Postemergence, 125 g ai/ha",60
same,"Pigweed, Palmer plant response rating",[19]; 500 g ai/ha,100
same,"Pigweed, Palmer plant response rating","[19]; Test C, 125 g ai/ha",10
same,"Plant response rating, Galium","[20]; 500 g ai/ha, postemergence",70
same,"Plant response rating, Galium","[20]; Postemergence, 125 g ai/ha",70
same,Kochia plant response rating,[21]; 500 g ai/ha,0
same,Kochia plant response rating,"[21]; Test C, 125 g ai/ha",0
same,Barnyardgrass plant response rating,[22]; 500 g ai/ha,90
same,Barnyardgrass plant response rating,"[22]; Test C, 125 g ai/ha",0
same,"Oat, Wild plant response rating",[23]; 500 g ai/ha,60
same,"Oat, Wild plant response rating","[23]; Test C, 125 g ai/ha",0
same,"Plant response rating, Pigweed, Palmer","[24]; 500 g ai/ha, postemergence",100
same,"Plant response rating, Pigweed, Palmer","[24]; Postemergence, 125 g ai/ha",80
same,"Plant response rating, Soybean","[25]; 500 g ai/ha, postemergence",100
same,"Plant response rating, Soybean","[25]; Postemergence, 125 g ai/ha",70
same,"Plant response rating, Barnyardgrass (Flood)",[26],15
same,"Plant response rating, Blackgrass","[27]; 500 g ai/ha, postemergence",90
same,"Plant response rating, Blackgrass","[27]; Postemergence, 125 g ai/ha",70
same,"Plant response rating, Ryegrass, Italian","[28]; 500 g ai/ha, postemergence",80
same,"Plant response rating, Ryegrass, Italian","[28]; Postemergence, 125 g ai/ha",60
